Like-named read-outs stand apart in the source and are kept apart here.
Legend:
MDR1 (P-glycoprotein) = experiment: in vitro; details: dog, MDCK-MDR1
[1] = molecular target: T1, human Arginine Vasopressin Receptor V2 (AVPR2) (Homo sapiens, UniProt P30518); experiment: Vasopressin V2 receptor antagonist assay (TR-FRET cAMP, 1321N1 cells); format: cell-based
T1 construct: host or cells: 1321N1 cells (cAMPZen V2 assay ready cells)
Protocol: The purpose of the assay is to determine the inhibitory effect of synthesized compounds on the Vasopressin receptor 2. […] Arginine Vasopressin (AVP) evokes an increase in intracellular cAMP in these cells which is measured in a TR-FRET assay using a Europium cAMP tracer and ULight labelled antibody reagents contained in a LANCE Ultra cAMP kit (Perkin Elmer #TRF0263). […] Test compounds are assessed for their ability to affect the magnitude of the response to AVP, with antagonists showing a concentration-dependent decrease in the AVP-mediated reduction in TR-FRET signal.
cAMPZen V2 assay ready cells are thawed at 37° C. and resuspended directly from frozen in 9 ml growth medium consisting of DMEM supplemented with 10% v/v fetal bovine serum, 1× non-essential amino acids, and 1 mM sodium pyruvate. […] The pellet is resuspended in 5 ml stimulation buffer and the cell density determined using the Vi-Cell automated cell counter. The cell suspension is diluted to a 0.2×10^6/ml suspension ready for plating. […]
At the start of each assay day the potency of AVP is assessed and an EC80 concentration determined for subsequent compound profiling. […] After a one hour incubation, plates are ready to be read (signals then remained stable for up to 24 hours). […] At the end of the incubation period, 2.5 μl of AVP in stimulation buffer is added at the previously determined EC80 concentration.

[2] = molecular target: T2, human Arginine Vasopressin Receptor 1a (AVPR1a) (Homo sapiens, UniProt P37288); experiment: Vasopressin V1a receptor antagonist assay (FLIPR calcium, CHO-AVPR1a cells); format: cell-based
T2 construct: expressed in transfected cells; host or cells: CHO (Chinese Hamster Ovary) cells, kept under G418 selection
Protocol: The purpose of this assay is to determine the inhibitory effect of synthesized compounds on the Vasopressin V1a receptor. The assay is performed in Chinese Hamster Ovary (CHO) cells expressing the human Arginine Vasopressin Receptor 1a (AVPR1a). Arginine Vasopressin (AVP) evokes an increase in intracellular calcium in CHO-AVPR1a cells which is measured in a fluorescence assay on the FLIPR^TETRA using calcium sensitive dyes. Test compounds are assessed for their ability to affect the magnitude of the response to AVP, with antagonists showing a concentration-dependent reduction in the AVP-mediated fluorescence. Compounds are tested in duplicate in a 10-point, 1:3 dilution series starting at a nominal concentration of 3 μM in the assay. […]
On day one, cells are harvested from T175 flasks when they are 80-90% confluent by first washing the cell monolayer with PBS and then dissociated using trypsin 0.05%/EDTA (3 mL for a T175 Flask). […] To the cell suspension, 10 ml of growth media is added and the cell density determined using the Vi-Cell automated cell counter. […]
At the start of each assay day, the potency of AVP is assessed and an EC80 concentration determined for subsequent compound profiling. […] At the end of the incubation period, 10 μl of AVP in assay buffer containing 0.1% BSA is added at the previously determined EC80 concentration.

[3] = molecular target: T3, human Oxytocin Receptor (hOTR) (Homo sapiens, UniProt P30559); experiment: Oxytocin receptor antagonist assay (FLIPR calcium, CHEM-1-hOTR cells); format: cell-based; details: antagonism of oxytocin (EC80) response; read-out: OT IC50
T3 construct: host or cells: CHEM-1 cells (ready-to-assay frozen cells)
T3 sequence (P30559 1-389): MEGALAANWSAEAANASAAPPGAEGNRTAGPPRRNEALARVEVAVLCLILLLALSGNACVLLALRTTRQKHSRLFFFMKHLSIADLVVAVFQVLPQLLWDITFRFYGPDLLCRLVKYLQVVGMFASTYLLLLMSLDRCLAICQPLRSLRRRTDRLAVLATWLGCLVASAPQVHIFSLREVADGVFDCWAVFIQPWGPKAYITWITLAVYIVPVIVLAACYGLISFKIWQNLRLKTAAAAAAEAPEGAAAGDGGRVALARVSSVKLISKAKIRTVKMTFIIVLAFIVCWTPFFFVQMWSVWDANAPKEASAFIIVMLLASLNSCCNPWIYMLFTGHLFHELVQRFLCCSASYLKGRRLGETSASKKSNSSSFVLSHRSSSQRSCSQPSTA
Protocol: This assay is performed in CHEM-1 cells expressing the human Oxytocin Receptor (hOTR) to determine the inhibitory effect of the compounds of the invention on the human Oxytocin receptor. Oxytocin evokes an increase in intracellular calcium in CHEM-1-hOTR cells which is measured in a fluorescence assay on the FLIPR^TETRA using calcium sensitive dyes. Test compounds are assessed for their ability to affect the magnitude of the response to oxytocin, with antagonists showing a concentration-dependent reduction in the oxytocin-mediated fluorescence.
CHEM-1-hOTR ready is used to assay frozen cells (Eurofins #HTS090RTA) which are supplied with a proprietary Media Component.
Day 1 of the assay: Cells are thawed in a 37° C. water bath and diluted with the supplied Media Component to a final volume of 10 ml. The cell suspension is centrifuged at 1000 rpm for 3 min at room temperature and the supernatant is discarded. […]
Day 2: At the start of each assay day the potency of oxytocin is assessed and an EC80 concentration is determined for subsequent compound profiling. […] Changes in fluorescence are monitored for 3 min after both additions on the FLIPR^TETRA using 470-495 nm excitation and 515-575 nm emission wavelengths. […] At the end of the incubation period 10 μl of oxytocin in assay buffer containing 0.1% BSA is added at the previously determined EC80 concentration. […]

in vitro = details: dog, MDCK
[4] = molecular target: T4, human Arginine Vasopressin Receptor 1b (AVPR1b) (Homo sapiens, UniProt P47901); experiment: Vasopressin V1b receptor antagonist assay (FLIPR calcium, CHO-AVPR1b cells); format: cell-based; details: antagonism of AVP (EC80) response
T4 construct: expressed in transfected cells; host or cells: CHO (Chinese Hamster Ovary) cells, kept under G418 selection
T4 sequence (P47901 1-424): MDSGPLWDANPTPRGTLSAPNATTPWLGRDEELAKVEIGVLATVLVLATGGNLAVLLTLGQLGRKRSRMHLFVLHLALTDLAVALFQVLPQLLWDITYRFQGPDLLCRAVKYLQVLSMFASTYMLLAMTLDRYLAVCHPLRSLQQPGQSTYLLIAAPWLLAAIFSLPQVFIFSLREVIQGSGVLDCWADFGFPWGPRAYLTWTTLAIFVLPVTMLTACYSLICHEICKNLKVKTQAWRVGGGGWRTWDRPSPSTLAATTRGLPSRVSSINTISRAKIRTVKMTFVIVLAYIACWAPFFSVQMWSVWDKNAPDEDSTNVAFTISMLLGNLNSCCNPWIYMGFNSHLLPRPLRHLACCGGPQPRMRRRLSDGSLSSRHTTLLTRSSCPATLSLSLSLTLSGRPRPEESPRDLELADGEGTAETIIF
Protocol: The purpose of the assay is to determine the inhibitory effect of synthesized compounds on the Vasopressin V1b receptor. The assay is performed in Chinese Hamster Ovary (CHO) cells expressing the human Arginine Vasopressin Receptor 1b (AVPR1b). Arginine Vasopressin (AVP) evokes an increase in intracellular calcium in CHO-AVPR1b cells which is measured in a fluorescence assay on the FLIPR^TETRA using calcium sensitive dyes. Test compounds are assessed for their ability to affect the magnitude of the response to AVP, with antagonists showing a concentration-dependent reduction in the AVP-mediated fluorescence.
CHO-AVPR1b cells are maintained in routine culture in T175 Flasks at 37° C., 5% CO2. […]
Cells are harvested from T175 flasks when they are 80-90% confluent by first washing the cell monolayer with PBS and then dissociated using trypsin 0.05%/EDTA (3 mL for a T175 Flask). […] To the cell suspension, 10 ml of growth media is added and the cell density determined using the Vi-Cell automated cell counter. […]
At the start of each assay day, the potency of AVP is assessed and an EC80 concentration determined for subsequent compound profiling. […] Changes in fluorescence are monitored for 3 min after both additions on the FLIPR^TETRA using 470-495 nm excitation and 515-575 nm emission wavelengths. […]

T2 sequence (P37288 whole entry): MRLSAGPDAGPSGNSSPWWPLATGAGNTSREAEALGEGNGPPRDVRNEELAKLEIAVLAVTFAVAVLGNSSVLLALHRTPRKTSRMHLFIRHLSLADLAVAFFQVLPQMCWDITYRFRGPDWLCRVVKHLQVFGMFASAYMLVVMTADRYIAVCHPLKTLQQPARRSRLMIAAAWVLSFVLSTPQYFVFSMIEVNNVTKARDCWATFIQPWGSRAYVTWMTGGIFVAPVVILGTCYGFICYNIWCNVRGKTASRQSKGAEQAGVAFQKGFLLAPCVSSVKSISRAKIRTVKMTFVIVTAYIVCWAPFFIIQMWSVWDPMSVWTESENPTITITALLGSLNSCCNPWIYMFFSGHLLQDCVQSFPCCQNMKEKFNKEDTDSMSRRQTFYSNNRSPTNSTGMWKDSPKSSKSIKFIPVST
T1 sequence (P30518 whole entry): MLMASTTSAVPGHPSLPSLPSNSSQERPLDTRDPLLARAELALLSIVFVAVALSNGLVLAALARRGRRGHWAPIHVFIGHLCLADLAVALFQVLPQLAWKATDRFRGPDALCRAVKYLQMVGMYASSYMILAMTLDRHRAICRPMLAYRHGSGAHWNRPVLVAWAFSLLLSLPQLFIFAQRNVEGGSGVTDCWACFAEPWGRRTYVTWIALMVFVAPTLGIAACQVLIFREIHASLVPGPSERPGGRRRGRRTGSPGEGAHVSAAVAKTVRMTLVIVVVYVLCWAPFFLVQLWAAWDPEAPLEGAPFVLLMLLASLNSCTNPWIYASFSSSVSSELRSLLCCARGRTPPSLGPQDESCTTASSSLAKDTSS

SMILES | Papp A→B (MDR1 (P-glycoprotein)) | IC50 [1] | IC50 [2] | IC50 [3] | IC50 ([2]; antagonism of AVP (EC80) response, read-out: V1a IC50) | Papp A→B (in vitro) | IC50 [4]
Clc1ccc2c(c1)CN(C1CC1)Cc1nnc(N3CC4(CN(c5ncccn5)C4)C3)n1-2 [Compound No. 225, 8-chloro-5-cyclopropyl-1-(6-(pyrimidin-2-yl)-2,6-diazaspiro[3.3]heptan-2-yl)-5,6-dihydro-4H-benzo[f][1,2,4]triazolo[4,3-a][1,4]diazepine] | > 20 ×10⁻⁶ cm/s | > 1 µM | < 0.1 µM | – | – | – | –
CN1Cc2cc(Cl)ccc2-n2c(nnc2[C@H]2CC[C@H](Oc3ccccn3)CC2)C1 [balovaptan] | > 20 ×10⁻⁶ cm/s | – | – | > 1 µM | < 0.1 µM | 10 to 20 ×10⁻⁶ cm/s | > 1 µM
